The record followed here is PubChem BioAssay (NCI).

Structures are written as SMILES.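 Cultured in 96-well plates, cells were exposed to test compound for 48 hours across five concentrations. GI50 marks 50% less growth. TGI: total growth inhibition.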

Among the test systems are BT-549 breast; EKVX NSCLC; HCT-15 colon; HS 578T breast; MDA-MB-231 breast; RPMI-8226 leukemia; SF-268 CNS; SF-539 CNS; SK-MEL-5 melanoma; TK-10 renal.
Holding throughout (assay): inhibition of tumour cell growth, NCI panel, 48 h

`O=C1/C(=C\C(Cl)=C/c2ccc([N+](=O)[O-])cc2)SC(=S)N1CCc1ccc(O)cc1`: the GI50 in the assay on BT-549 breast was 0.332 µM; with EKVX NSCLC, 0.94 µM; in the assay on HCT-15 colon, 0.246 µM; in the assay with HS 578T breast, 0.354 µM; in the assay with MDA-MB-231 breast it was 0.449 µM; in the assay on RPMI-8226 leukemia, 0.268 µM. Moreover, the GI50 with SF-268 CNS is 0.831 µM; in the assay with SF-539 CNS, 0.328 µM; in the assay on SK-MEL-5 melanoma, 1.63 µM; with TK-10 renal, 1.53 µM. The TGI in the assay with BT-549 breast worked out at 1.28 µM; in the assay on EKVX NSCLC, 2.21 µM; in the assay on HCT-15 colon, 0.741 µM; with HS 578T breast, 2.04 µM; with MDA-MB-231 breast, 2.03 µM; with RPMI-8226 leukemia it was 0.884 µM. Further, the TGI with SF-268 CNS came out at 2.77 µM; with SF-539 CNS it was 1.12 µM; with SK-MEL-5 melanoma it was 3.01 µM; in the assay on TK-10 renal, 3.25 µM.

In the case of `Cn1cccc1-c1cc(-c2cccs2)[nH]c(=O)c1C#N`, the GI50 with BT-549 breast was greater than 100 µM; in the assay with EKVX NSCLC, 52.3 µM; in the assay with HCT-15 colon, greater than 100 µM; in the assay with HS 578T breast, greater than 100 µM; in the assay on MDA-MB-231 breast, greater than 100 µM; in the assay on RPMI-8226 leukemia, greater than 100 µM. Besides, the GI50 in the assay with SF-268 CNS is 20.6 µM; with SF-539 CNS it was greater than 100 µM; in the assay on SK-MEL-5 melanoma, greater than 100 µM; with TK-10 renal, greater than 100 µM. For the same molecule, the TGI in the assay on BT-549 breast, in the assay with EKVX NSCLC, with HCT-15 colon, in the assay with HS 578T breast, in the assay on MDA-MB-231 breast and in the assay on RPMI-8226 leukemia was greater than 100 µM each time. In addition, the TGI in the assay on SF-268 CNS, in the assay on SF-539 CNS, with SK-MEL-5 melanoma and with TK-10 renal was greater than 100 µM each time.

In the case of `O=C(Nc1nccs1)c1cc2c(cc1Cl)Sc1nccn1S2(=O)=O`, the GI50 with BT-549 breast was 18.2 µM; with EKVX NSCLC it was 20.6 µM; in the assay on HCT-15 colon, 12.2 µM; in the assay on HS 578T breast it was 28.5 µM; in the assay with MDA-MB-231 breast it was 19.5 µM; in the assay with RPMI-8226 leukemia, 9.29 µM. The GI50 was 19.2 µM in the assay on SF-268 CNS, 19.4 µM in the assay with SF-539 CNS, 16.5 µM with SK-MEL-5 melanoma and 18.9 µM with TK-10 renal. Besides, the TGI in the assay with BT-549 breast was determined as 35.4 µM; in the assay on EKVX NSCLC it was 44.7 µM; in the assay on HCT-15 colon, 33.9 µM; in the assay with HS 578T breast, 91.7 µM; in the assay on MDA-MB-231 breast, 36.2 µM; with RPMI-8226 leukemia it was 23.6 µM. Moreover, the TGI is 46.9 µM in the assay on SF-268 CNS, 37.5 µM in the assay with SF-539 CNS, 30 µM with SK-MEL-5 melanoma and 34.4 µM with TK-10 renal.

Regarding `Cn1ncc2c(/N=C/c3cccs3)[nH]c(=S)nc21`, the GI50 is 33.2 µM with BT-549 breast; 41.1 µM in the assay on EKVX NSCLC; 42.4 µM with HCT-15 colon; 24.9 µM with HS 578T breast; 20.3 µM in the assay with MDA-MB-231 breast; 31.6 µM with RPMI-8226 leukemia. For the same molecule, the GI50 in the assay with SF-268 CNS was 26.2 µM; in the assay on SF-539 CNS it was 32.2 µM; in the assay on SK-MEL-5 melanoma, 17.9 µM; in the assay with TK-10 renal it was 40.6 µM. In addition, the TGI is greater than 91.3 µM in the assay with BT-549 breast; 99.8 µM with EKVX NSCLC; greater than 100 µM in the assay with HCT-15 colon; 77 µM in the assay on HS 578T breast; greater than 67.5 µM with MDA-MB-231 breast; greater than 100 µM in the assay with RPMI-8226 leukemia. The TGI was greater than 94.6 µM with SF-268 CNS, greater than 100 µM with SF-539 CNS, 39.9 µM with SK-MEL-5 melanoma and greater than 85.2 µM in the assay on TK-10 renal.

Consider `Cc1c2c(nn1C(=O)c1nn(-c3ccc(Cl)cc3)cc1O)-c1ccccc1CC2`, for which the GI50 was 0.0306 µM with BT-549 breast; 0.0707 µM with EKVX NSCLC; 0.0496 µM in the assay on HCT-15 colon; 0.0201 µM with HS 578T breast; 1.62 µM in the assay on MDA-MB-231 breast; 0.0432 µM in the assay with RPMI-8226 leukemia. Besides, the GI50 with SF-268 CNS was 0.0469 µM; in the assay with SF-539 CNS, 0.041 µM; in the assay on SK-MEL-5 melanoma, 0.313 µM; in the assay with TK-10 renal, 0.0429 µM. The TGI in the assay on BT-549 breast, with EKVX NSCLC, in the assay with HCT-15 colon, in the assay with HS 578T breast, with MDA-MB-231 breast and in the assay with SF-268 CNS was greater than 100 µM throughout. In addition, the TGI is 28.1 µM in the assay on SF-539 CNS and greater than 100 µM with TK-10 renal.

As for `CCOC(=O)c1ccc(N(CCOS(C)(=O)=O)CCOS(C)(=O)=O)cc1C`, the GI50 with BT-549 breast is 34.1 µM; in the assay with EKVX NSCLC, 29.5 µM; with HCT-15 colon, 28.2 µM; in the assay on HS 578T breast, 64.1 µM; in the assay on MDA-MB-231 breast it was 77.9 µM; in the assay on RPMI-8226 leukemia, 22.2 µM. The GI50 in the assay on SF-268 CNS is 22 µM; with SF-539 CNS, 23.9 µM; with SK-MEL-5 melanoma, 35.9 µM; in the assay on TK-10 renal, 50.7 µM. The TGI with BT-549 breast, in the assay on EKVX NSCLC, in the assay with HCT-15 colon, in the assay on HS 578T breast, with MDA-MB-231 breast and in the assay on RPMI-8226 leukemia was greater than 100 µM throughout. Further, the TGI was 82.7 µM in the assay with SF-268 CNS, greater than 100 µM in the assay with SF-539 CNS, greater than 100 µM with SK-MEL-5 melanoma and greater than 100 µM in the assay with TK-10 renal.

With `ClCc1ccc(-c2ccc(Cn3cnc4c(Cl)nc(Cl)nc43)cc2)cc1`, the GI50 is 3.71 µM with BT-549 breast; 3.32 µM in the assay on EKVX NSCLC; 1.67 µM in the assay with HCT-15 colon; 3.14 µM in the assay on HS 578T breast; 2.76 µM in the assay on MDA-MB-231 breast; 2.33 µM with RPMI-8226 leukemia. The GI50 in the assay on SF-268 CNS was 2.01 µM; in the assay on SF-539 CNS, 2.14 µM; in the assay on SK-MEL-5 melanoma it was 2.75 µM; in the assay on TK-10 renal it was 2.11 µM. Moreover, the TGI with BT-549 breast was 15.5 µM; in the assay on EKVX NSCLC, 15.5 µM; with HCT-15 colon, 3.35 µM; with HS 578T breast, 11.1 µM; with MDA-MB-231 breast it was 7.14 µM; with RPMI-8226 leukemia it was 5.77 µM. The TGI turned out to be 4.77 µM in the assay on SF-268 CNS, 4.99 µM with SF-539 CNS, 12.3 µM in the assay on SK-MEL-5 melanoma and 4.42 µM in the assay on TK-10 renal.

With `Nc1ncnc2c1nc(-c1ccccc1)n2C1OC(CO)C(O)C1O` (stereo not drawn), the TGI in the assay on BT-549 breast, in the assay with EKVX NSCLC, in the assay on HCT-15 colon, with HS 578T breast, in the assay on MDA-MB-231 breast and in the assay with RPMI-8226 leukemia was greater than 100 µM in each case. For the same molecule, the TGI in the assay on SF-268 CNS, in the assay on SF-539 CNS, with SK-MEL-5 melanoma and in the assay on TK-10 renal was greater than 100 µM in each case.

Take `O=C(O)CC(Nc1ccccc1)C(=O)O` (stereo not drawn): the TGI in the assay on BT-549 breast, with EKVX NSCLC, in the assay on HCT-15 colon, with HS 578T breast, with MDA-MB-231 breast and in the assay on RPMI-8226 leukemia was greater than 100 µM throughout. For the same molecule, the TGI in the assay with SF-268 CNS, in the assay with SF-539 CNS, in the assay with SK-MEL-5 melanoma and in the assay with TK-10 renal was greater than 100 µM throughout.

As for `C=C1C(=O)O[C@H]2[C@H]1CC/C(Cn1cc(Cn3ccc4ccccc43)nn1)=C\CC[C@@]1(C)O[C@@H]21`, the GI50 in the assay on BT-549 breast was 1.38 µM; with EKVX NSCLC, 1.86 µM; with HCT-15 colon, 1.3 µM; in the assay with HS 578T breast, 2.9 µM; in the assay on MDA-MB-231 breast it was 1.31 µM; in the assay with RPMI-8226 leukemia, 1.68 µM. The GI50 in the assay with SF-268 CNS was 1.82 µM; with SF-539 CNS, 1.86 µM; in the assay with SK-MEL-5 melanoma it was 1.97 µM; with TK-10 renal it was 1.65 µM. For the same molecule, the TGI in the assay on BT-549 breast was 2.69 µM; with EKVX NSCLC, 4.22 µM; with HCT-15 colon it was 2.77 µM; with HS 578T breast, 14.2 µM; in the assay with MDA-MB-231 breast, 2.84 µM; with RPMI-8226 leukemia, 4.7 µM. Moreover, the TGI in the assay with SF-268 CNS was 3.63 µM; in the assay on SF-539 CNS it was 3.35 µM; in the assay with SK-MEL-5 melanoma, 4.38 µM; in the assay on TK-10 renal, 3.05 µM.

With `CCOC(=O)/C(=C/c1ccc([N+](=O)[O-])cc1)C(=O)c1ccccc1`, the GI50 in the assay with BT-549 breast is 2.04 µM; in the assay with EKVX NSCLC, 4.88 µM; in the assay with HCT-15 colon it was 1.99 µM; with HS 578T breast, 3.44 µM; in the assay with MDA-MB-231 breast, 2.34 µM; in the assay with RPMI-8226 leukemia, 2.34 µM. The GI50 with SF-268 CNS was 2.83 µM; with SF-539 CNS, 1.82 µM; with SK-MEL-5 melanoma, 1.94 µM; in the assay on TK-10 renal it was 2.27 µM. In addition, the TGI in the assay on BT-549 breast is 4.37 µM; with EKVX NSCLC it was 17.4 µM; in the assay on HCT-15 colon, 4.51 µM; in the assay with HS 578T breast, 12.8 µM; in the assay with MDA-MB-231 breast it was 5.24 µM; with RPMI-8226 leukemia it was 6.07 µM. Besides, the TGI in the assay with SF-268 CNS worked out at 10.7 µM; with SF-539 CNS it was 3.58 µM; in the assay with SK-MEL-5 melanoma, 3.62 µM; in the assay on TK-10 renal, 6.54 µM.

For `CCCc1cc2cc(-n3nc(C)c4c3CC(C)(C)CC4=O)cc(NC3CCC(O)CC3)c2c(=O)[nH]1` (stereo not drawn), the GI50 is 0.959 µM in the assay on BT-549 breast; 1.53 µM in the assay on EKVX NSCLC; 0.167 µM in the assay on HCT-15 colon; 0.989 µM in the assay on HS 578T breast; 0.192 µM with MDA-MB-231 breast; 0.465 µM with RPMI-8226 leukemia. The GI50 with SF-268 CNS was 1.8 µM; in the assay with SF-539 CNS, 0.782 µM; with SK-MEL-5 melanoma, 0.241 µM; with TK-10 renal, 0.0964 µM. Also, the TGI with BT-549 breast is greater than 100 µM; in the assay on EKVX NSCLC, greater than 100 µM; in the assay with HCT-15 colon it was greater than 100 µM; in the assay with HS 578T breast, greater than 100 µM; with MDA-MB-231 breast, 3.76 µM; with RPMI-8226 leukemia, 14.9 µM. In addition, the TGI in the assay on SF-268 CNS was greater than 100 µM; in the assay on SF-539 CNS, greater than 100 µM; in the assay with SK-MEL-5 melanoma it was 3.56 µM; with TK-10 renal it was greater than 100 µM.
